Literature values in paper PMC12308805, “Ultrahigh-Throughput Virtual Screening Strategies against PPI Targets: A Case Study of STAT Inhibitors” (Journal of Chemical Information and Modeling, 2025).

System: STAT3
Settings: sheet 6QHD_actives_decoys, retrospective screening set for STAT3 SH2 domain (PDB 6QHD); decoys are presumed inactives, not tested; ref DUD-E; cited from earlier work
In the case of `COc1c([C@@H]2OC[C@@H](OC(C)=O)[C@@H](OC(C)=O)[C@H]2OC(C)=O)c(O)cc2oc(-c3ccc(O[C@H]4O[C@@H](CO)[C@@H](O)[C@@H](O)[C@H]4O)cc3)cc(=O)c12` [Decoy773], the Type is given as “Inactive (Decoy)”.
For `CCOC(=O)c1c(NC(=O)CSc2n[nH]c(N/N=C/c3c[nH]c4ccccc34)n2)sc2c1CCC2` [Decoy751], the Type is listed as “Inactive (Decoy)”.
In the case of `O=C(O)CN(CC(=O)O)Cc1cc2c(cc1O)Oc1cc(O)c(CN(CC(=O)O)CC(=O)O)cc1C21OC(=O)c2ccccc21` [Decoy739], the Type is listed as “Inactive (Decoy)”.
In the case of `Cc1ccc(C)c(NC(=O)CCC(=O)N/N=C(/S)NC(=O)c2ccccc2[N+](=O)[O-])c1` [Decoy948], the Type is given as “Inactive (Decoy)”.
In the case of `Cc1ccc(OCC(=O)NNC(=O)CCCCC(=O)NNC(=O)COc2ccc(C)cc2Br)c(Br)c1` [Decoy784], the Type is given as “Inactive (Decoy)”.
For `CC[C@@]1(c2ccccc2)NC(=O)N(CC(=O)NNC(=O)CCN2CCN(c3ccccc3)CC2)C1=O` [Decoy766], the Type is listed as “Inactive (Decoy)”.
In the case of `CC(=O)SCCNC(=O)CCNC(=O)[C@@H](O)C(C)(C)CO[P@](=O)(O)O[P@](=O)(O)OC[C@H]1O[C@@H](n2cnc3c(N)ncnc32)[C@@H](O)[C@H]1OP(=O)(O)O` [Decoy854], the Type is listed as “Inactive (Decoy)”.
For `Nc1ncnc2c1ncn2[C@@H]1O[C@H](CO[P@](=O)(O[C@H](CO)[C@@H](O)[C@H](O)[C@@H](O)C=O)OP(=O)(O)O)[C@@H](O)[C@H]1O` [Decoy946], the Type is given as “Inactive (Decoy)”.

Same assay, conditions: sheet 6QHD_actives_decoys; known STAT3 actives of the retrospective screening set; ref ChEMBL / literature; cited from earlier work
In the case of `CC(C)C[C@H](NC(=O)[C@H](Cc1ccc(OP(=O)(O)O)cc1)NC(=O)CCc1ccccc1)C(=O)N1C[C@H]2C[C@H]2[C@H]1C(=O)N[C@@H](CCC(N)=O)C(=O)NCc1ccccc1` [CHEMBL370763], the “Type (known STAT3 active)” value is given as “Active”.

Same assay, conditions: sheet 6QHD_actives_decoys; retrospective screening set for STAT3 SH2 domain (PDB 6QHD); […]; ref DUD-E; cited from earlier work
In the case of `COc1ccc(NC(=O)c2cc(C)nc3c2c(C)nn3C)cc1NS(=O)(=O)c1ccc(F)cc1` [Decoy619], the Type is given as “Inactive (Decoy)”.
For `CO[C@@H]1C[C@H](O[C@H]2CC[C@]3(/C=N/CC#N)[C@H]4CC[C@]5(C)[C@@H](C6=CC(=O)OC6)CC[C@]5(O)[C@@H]4CC[C@]3(O)C2)O[C@@H](C)[C@@H]1O` [Decoy348], the Type is listed as “Inactive (Decoy)”.

Same assay, conditions: sheet 6QHD_actives_decoys; retrospective screening set for STAT3 SH2 domain (PDB 6QHD); decoys generated with DUD-E and presumed inactive, not tested; ref DUD-E; cited from earlier work
In the case of `CC(=O)O[C@@H]1[C@H](O)[C@H](CO)O[C@H](OCC2=CO[C@H](OC(=O)CC(C)C)[C@H]3[C@H]2C[C@H](OC(C)=O)[C@@]3(C)O)[C@@H]1OC(C)=O` [Decoy569], the Type is listed as “Inactive (Decoy)”.
For `C=C[C@](C)(O)CC/C=C(\C)C(=O)OC[C@H]1O[C@@H](O[C@@](C)(C=C)CC/C=C(\C)C(=O)O)[C@H](O)[C@@H](OC(=O)/C(C)=C/CC[C@](C)(O)C=C)[C@@H]1O` [Decoy662], the Type is given as “Inactive (Decoy)”.
For `CCNC(=O)COc1ccc(NC(=O)c2cc(S(=O)(=O)NCc3ccco3)ccc2C)cc1` [Decoy477], the Type is listed as “Inactive (Decoy)”.
For `COc1cc(-c2nnc(SCC(=O)N/N=C/c3cccc(O)c3)n2-c2ccccc2)cc(OC)c1OC` [Decoy474], the Type is listed as “Inactive (Decoy)”.
For `C=CCSc1nnc(/N=C(\O)CSc2nnc(N/N=C/c3c(O)ccc4ccccc34)n2N)s1` [Decoy343], the Type is given as “Inactive (Decoy)”.
For `CCOC(=O)c1[nH]c(C)c(C(=O)C2=C(O)C(=O)N(CCN(CC)CC)[C@H]2c2ccc(OC)c(OC)c2)c1C` [Decoy455], the Type is given as “Inactive (Decoy)”.
In the case of `CCCNC(=O)CN(C)C(=O)c1ccc(N2CCNCC2)c(NS(=O)(=O)c2ccc(CCC)cc2)c1` [Decoy450], the Type is given as “Inactive (Decoy)”.
In the case of `COc1cc(/C=N/Nc2nnc(SCC(=O)Nc3ccc(C)cc3C)n2N)cc(OC)c1OC` [Decoy379], the Type is listed as “Inactive (Decoy)”.
In the case of `C=C[C@@](C)(O)CC/C=C(\C)C(=O)O[C@@H]1[C@@H]2O[C@]2(C)[C@H]2[C@H](O[C@@H]3O[C@H](CO)[C@@H](O)[C@H](O)[C@H]3O)OC=C[C@@]12O` [Decoy691], the Type is given as “Inactive (Decoy)”.
For `O=C(O)C[C@H](NC(=O)CN(CCN(CC(=O)O)CC(=O)N[C@@H](CC(=O)O)C(=O)O)CC(=O)O)C(=O)O` [Decoy356], the Type is given as “Inactive (Decoy)”.
In the case of `COCCN(C(=O)COc1cc(Cl)c(Cl)cc1Cl)c1c(N)n(CC(C)C)c(=O)[nH]c1=O` [Decoy712], the Type is listed as “Inactive (Decoy)”.
